Experimental data published in patent US5041567A, “Antibacterial monic acid derivatives” (Beecham Group plc, priority 1982, dated 1991).
Values after ≈ are worked out from the molar mass of the structure shown.

How the values were obtained:
Strep. uberis SPU1 = assay: MIC against veterinary bacteria in vitro; conditions: Streptococcus uberis, SPU1, 18 h
Procedure: (§1) The activity of the compounds of the Examples against various veterinarily important bacteria, was assayed in vitro using two-fold serial dilutions in Diagnostic Sensitivity Test Agar inoculated with 10^4 organisms.

M. suipneumoniae MS 16 = assay: MIC against mycoplasma in vitro; type: cell-based; conditions: Mesomycoplasma hyopneumoniae, MS16, 144 h; M. suipneumoniae MS 16; 6 days, 37° C.; read-out: MIC
Strep. faecalis I = assay: MIC against human bacteria in vitro; type: cell-based; conditions: Enterococcus faecalis, 18 h
[1] = test system: Corynebacterium xerosis 9755; assay: MIC against human bacteria in vitro; type: cell-based; conditions: Corynebacterium xerosis, 9755, 18 h
[2] = test system: Staph. aureus 152 (pen. sens); assay: MIC against veterinary bacteria in vitro; conditions: Staphylococcus aureus, 18 h
Procedure: as §1

Staph. aureus Russell = assay: MIC against human bacteria in vitro; type: cell-based; conditions: Staphylococcus aureus, 18 h
Bacillus subtilis 6633 = assay: MIC against human bacteria in vitro; type: cell-based; conditions: Bacillus subtilis 6633; 5% chocolated horse blood agar, 18 hours; read-out: MIC
[3] = test system: Erysipelothrix rhusiopathiae NCTC 8163; assay: MIC against veterinary bacteria in vitro; conditions: Erysipelothrix rhusiopathiae, NCTC8163, 18 h
Procedure: as §1

[4] = test system: Corynebacterium pyogenes CY1; assay: MIC against veterinary bacteria in vitro; conditions: CY1, 18 h
Procedure: as §1

S. dublin S7 = assay: MIC against veterinary bacteria in vitro; conditions: Salmonella enterica, S7, 18 h
Procedure: as §1

M. hyorhinis ATCC 23234 = assay: MIC against mycoplasma in vitro; type: cell-based; conditions: Mesomycoplasma hyorhinis, ATCC23234, 144 h; M. hyorhinis ATCC 23234; 6 days, 37° C.; read-out: MIC
M. suipneumoniae TAM 6N = assay: MIC against mycoplasma in vitro; type: cell-based; conditions: Mesomycoplasma hyopneumoniae, TAM6N, 144 h; M. suipneumoniae TAM 6N; 6 days, 37° C.; read-out: MIC
M. hyorhinis ATCC 25021 = assay: MIC against mycoplasma in vitro; type: cell-based; conditions: Mesomycoplasma hyorhinis, ATCC25021, 144 h; M. hyorhinis ATCC 25021; 6 days, 37° C.; read-out: MIC
E. coli ESS = assay: MIC against human bacteria in vitro; type: cell-based; conditions: Escherichia coli; E. coli ESS; 5% chocolated horse blood agar, 18 hours; read-out: MIC
Strep. dysgalactiae SPD1 = assay: MIC against veterinary bacteria in vitro; conditions: Streptococcus dysgalactiae, SPD1, 18 h
Procedure: as §1

M. suipneumoniae HK(2) = assay: MIC against mycoplasma in vitro; type: cell-based; conditions: Mesomycoplasma hyopneumoniae, 144 h; M. suipneumoniae HK(2); 6 days, 37° C.; read-out: MIC
Strep. pneumoniae CN33 = assay: MIC against human bacteria in vitro; type: cell-based; conditions: Streptococcus pneumoniae, CN33, 18 h
Strep. spp. 64/848-C = assay: MIC against human bacteria in vitro; type: cell-based; conditions: 18 h
M. suipneumoniae Str. 11 = assay: MIC against mycoplasma in vitro; type: cell-based; conditions: Mesomycoplasma hyopneumoniae, 144 h; M. suipneumoniae Str. 11; 6 days, 37° C.; read-out: MIC
[5] = test system: Haemophilus influenzae Wy21; assay: MIC against human bacteria in vitro; type: cell-based; conditions: Haemophilus influenzae Wy21; 5% chocolated horse blood agar, 18 hours; read-out: MIC
K. aerogenes A = assay: MIC against human bacteria in vitro; type: cell-based; conditions: Klebsiella aerogenes, 18 h
Strep. agalactiae 2788-B = assay: MIC against human bacteria in vitro; type: cell-based; conditions: Streptococcus agalactiae, 2788B, 18 h
Past. multocida PA2 = assay: MIC against veterinary bacteria in vitro; conditions: Pasteurella multocida, PA2, 18 h
Procedure: as §1

Staph. aureus Oxford = assay: MIC against veterinary bacteria in vitro; conditions: Staphylococcus aureus, 18 h
Procedure: as §1

Sarcina lutea 8340 = assay: MIC against human bacteria in vitro; type: cell-based; conditions: Micrococcus luteus, 8340, 18 h
E. coli NCTC 10418 = assay: MIC against human bacteria in vitro; type: cell-based; conditions: Escherichia coli, NCTC10418, 18 h
[6] = test system: Strep. pyogenes R80/421-A; assay: MIC against human bacteria in vitro; type: cell-based; conditions: Streptococcus pyogenes, R80/421A, 18 h
Staph. aureus W2827 = assay: MIC against human bacteria in vitro; type: cell-based; conditions: Staphylococcus aureus, W2827, 18 h
[7] = test system: Neisseria catarrhalis 1502; assay: MIC against human bacteria in vitro; type: cell-based; conditions: Neisseria, 1502, 18 h
[8] = test system: M. suipneumoniae ATCC 25095; assay: MIC against mycoplasma in vitro; type: cell-based; conditions: Mesomycoplasma hyopneumoniae, ATCC25095, 144 h; M. suipneumoniae ATCC 25095; 6 days, 37° C.; read-out: MIC
M. suipneumoniae LABER = assay: MIC against mycoplasma in vitro; type: cell-based; conditions: Mesomycoplasma hyopneumoniae, 144 h; M. suipneumoniae LABER; 6 days, 37° C.; read-out: MIC
S. typhimurium S18 = assay: MIC against veterinary bacteria in vitro; conditions: Salmonella enterica, TYPHIMURIUM, 18 h
Procedure: as §1

[9] = test system: M. bovigenitalium ATCC 14173; assay: MIC against mycoplasma in vitro; type: cell-based; conditions: 144 h; M. bovigenitalium ATCC 14173; 6 days, 37° C.; read-out: MIC
M. suipneumoniae NB12 = assay: MIC against mycoplasma in vitro; type: cell-based; conditions: Mesomycoplasma hyopneumoniae, 144 h; M. suipneumoniae NB12; Friis broth, 0.9% agarose, 6 days, 37° C.; read-out: MIC
[10] = test system: Ps. aeruginosa NCTC 10662; assay: MIC against human bacteria in vitro; type: cell-based; conditions: Pseudomonas aeruginosa, NCTC10662, 18 h

SMILES: C/C(=C/c1ncc(-c2ccccc2)o1)C[C@@H]1OC[C@H](C[C@@H]2O[C@H]2[C@@H](C)[C@H](C)O)[C@@H](O)[C@H]1O [Example 2, 2-{3-[5-(2,3-epoxy-5-hydroxy-4-methylhexyl)-3,4-dihydroxytetrahydropyran-2-yl]-2-methylprop-1(Z)-enyl}-5-phenyloxazole]
- MIC (Strep. uberis SPU1): 5 µg/mL (≈ 11.3 µM)
- MIC (M. suipneumoniae MS 16): 5 µg/mL (≈ 11.3 µM)
- MIC (Strep. faecalis I): > 50 µg/mL
- MIC [1]: > 50 µg/mL
- MIC [2]: 20 µg/mL (≈ 45.1 µM)
- MIC (Staph. aureus Russell): > 50 µg/mL
- MIC (Bacillus subtilis 6633): 25 µg/mL (≈ 56.4 µM)
- MIC [3]: > 80 µg/mL
- MIC [4]: > 80 µg/mL
- MIC (S. dublin S7): > 80 µg/mL
- MIC (M. hyorhinis ATCC 23234): 10 µg/mL (≈ 22.5 µM)
- MIC (M. suipneumoniae TAM 6N): > 10 µg/mL
- MIC (M. hyorhinis ATCC 25021): 5 µg/mL (≈ 11.3 µM)
- MIC (E. coli ESS): 25 µg/mL (≈ 56.4 µM)
- MIC (Strep. dysgalactiae SPD1): 10 µg/mL (≈ 22.5 µM)
- MIC (M. suipneumoniae HK(2)): 10 µg/mL (≈ 22.5 µM)
- MIC (Strep. pneumoniae CN33): > 50 µg/mL
- MIC (Strep. spp. 64/848-C): > 50 µg/mL
- MIC (M. suipneumoniae Str. 11): 10 µg/mL (≈ 22.5 µM)
- MIC [5]: 12.5 µg/mL (≈ 28.2 µM)
- MIC (K. aerogenes A): > 50 µg/mL
- MIC (Strep. agalactiae 2788-B): > 50 µg/mL
- MIC (Past. multocida PA2): 20 µg/mL (≈ 45.1 µM)
- MIC (Staph. aureus Oxford): 20 µg/mL (≈ 45.1 µM)
- MIC (Sarcina lutea 8340): > 50 µg/mL
- MIC (E. coli NCTC 10418): > 50 µg/mL
- MIC [6]: > 50 µg/mL
- MIC (Staph. aureus W2827): > 50 µg/mL
- MIC [7]: > 50 µg/mL
- MIC [8]: 10 µg/mL (≈ 22.5 µM)
- MIC (M. suipneumoniae LABER): 10 µg/mL (≈ 22.5 µM)
- MIC (S. typhimurium S18): > 80 µg/mL
- MIC [9]: 0.5 µg/mL (≈ 1.13 µM)
- MIC (M. suipneumoniae NB12): > 10 µg/mL
- MIC [10]: > 50 µg/mL
